Assay results taken from PubChem BioAssay AID248 (DTP/NCI, 2004).
Where “and” joins values, the source holds several entries; their conditions need not be identical. Equal entries are not always repeated. Toxic doses and inconclusive results are not listed. Cut-off read from the data, not from the text of the source: active = T/C of 150% or more; inactive = T/C below 125%.

Test system: L1210 leukemia ip in BDF1 mice, survival T/C
Test: NCI In Vivo Anticancer Drug Screen. Data for tumor model L1210 Leukemia (intraperitoneal) in B6D2F1 (BDF1) mice
Details: endpoint: mean survival time, higher = longer survival
Method in brief: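 Tumor was transplanted into mice, which were then dosed with test compound or vehicle alone. Survival was recorded for each group, and the treated figure was expressed relative to the control figure.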

[1] = dose: 100.0 mg/kg/injection, schedule: Q04DX003 (ip), vehicle: saline
[2] = dose: 200.0 mg/kg/injection, schedule: Q04DX003 (ip), vehicle: saline
[3] = dose: 100.0 mg/kg/injection, schedule: Q01DX009 (ip), vehicle: Klucel (hydroxypropylcellulose) (HPC)
[4] = dose: 100.0 mg/kg/injection, schedule: Q04DX003 (ip), vehicle: Klucel (hydroxypropylcellulose) (HPC)
[5] = dose: 200.0 mg/kg/injection, schedule: Q01DX009 (ip), vehicle: Klucel (hydroxypropylcellulose) (HPC)
[6] = dose: 200.0 mg/kg/injection, schedule: Q04DX003 (ip), vehicle: Klucel (hydroxypropylcellulose) (HPC)
[7] = dose: 400.0 mg/kg/injection, schedule: Q01DX009 (ip), vehicle: Klucel (hydroxypropylcellulose) (HPC)
[8] = dose: 400.0 mg/kg/injection, schedule: Q04DX003 (ip), vehicle: Klucel (hydroxypropylcellulose) (HPC)
[9] = dose: 100.0 mg/kg/injection, schedule: Q01DX001 (ip), vehicle: saline
[10] = dose: 200.0 mg/kg/injection, schedule: Q01DX001 (ip), vehicle: saline
[11] = dose: 400.0 mg/kg/injection, schedule: Q01DX001 (ip), vehicle: saline
[12] = dose: 100.0 mg/kg/injection, schedule: Q01DX009 (ip), vehicle: saline with Tween-80
[13] = dose: 100.0 mg/kg/injection, schedule: Q04DX003 (ip), vehicle: saline with Tween-80
[14] = dose: 200.0 mg/kg/injection, schedule: Q04DX003 (ip), vehicle: saline with Tween-80
[15] = dose: 400.0 mg/kg/injection, schedule: Q04DX003 (ip), vehicle: saline with Tween-80

Measured: T/C

C=CCC[P+](c1ccccc1)(c1ccccc1)c1ccccc1
inactive: dose: 12.5 mg/kg/injection, schedule: Q04DX003 (ip), vehicle: Klucel (hydroxypropylcellulose) (HPC) 97 % of control | dose: 16.0 mg/kg/injection, schedule: Q04DX003 (ip), vehicle: Klucel (hydroxypropylcellulose) (HPC) 90 % of control | dose: 25.0 mg/kg/injection, schedule: Q04DX003 (ip), vehicle: Klucel (hydroxypropylcellulose) (HPC) 104 % of control | dose: 35.0 mg/kg/injection, schedule: Q04DX003 (ip), vehicle: Klucel (hydroxypropylcellulose) (HPC) 101 % of control | dose: 50.0 mg/kg/injection, schedule: Q04DX003 (ip), vehicle: Klucel (hydroxypropylcellulose) (HPC) 95 % of control and 103 % of control

COC(=O)C(=NO)C(=O)OC
inactive: dose: 100.0 mg/kg/injection, schedule: Q01DX009 (ip), vehicle: saline 98 % of control | [1] 93 % of control | dose: 200.0 mg/kg/injection, schedule: Q01DX009 (ip), vehicle: saline 106 % of control | [2] 95 % of control | dose: 400.0 mg/kg/injection, schedule: Q01DX009 (ip), vehicle: saline 106 % of control | dose: 400.0 mg/kg/injection, schedule: Q04DX003 (ip), vehicle: saline 96 % of control

CC(=O)Nc1ncc(CCC2OCCO2)c(=O)[nH]1
inactive: dose: 100.0 mg/kg/injection, schedule: Q01DX001 (ip), vehicle: Klucel (hydroxypropylcellulose) (HPC) 95 % of control | dose: 200.0 mg/kg/injection, schedule: Q01DX001 (ip), vehicle: Klucel (hydroxypropylcellulose) (HPC) 97 % of control | dose: 400.0 mg/kg/injection, schedule: Q01DX001 (ip), vehicle: Klucel (hydroxypropylcellulose) (HPC) 98 % of control

CCOC(=O)/C(C#N)=C/c1ccc(O)c(OC)c1
inactive: [3] 101 % of control | [4] 102 % of control | [5] 94 % of control | [6] 96 % of control | [7] 89 % of control | [8] 95 % of control

CSc1nc(C)c(C)c(=O)[nH]1
inactive: [9] 104 % of control | [10] 116 % of control | [11] 124 % of control

CCN(CC)c1ccccc1S(=O)(=O)O
inactive: [9] 104 % of control | [10] 95 % of control | [11] 98 % of control

Nc1ncn(C2OC(CO)C(O)C2O)n1 (stereo not drawn)
inactive: dose: 100.0 mg/kg/injection, schedule: Q01DX005 (ip), vehicle: saline 105 % of control | dose: 200.0 mg/kg/injection, schedule: Q01DX005 (ip), vehicle: saline 103 % of control

Nc1cc(=O)[nH]c(=S)n1-c1ccc(I)cc1
inactive: dose: 50.0 mg/kg/injection, schedule: Q01DX001 (ip), vehicle: saline 100 % of control | [9] 106 % of control | [10] 102 % of control | [11] 100 % of control

O=C1CC(c2ccccc2)NN1c1ccccc1 (stereo not drawn)
inactive: dose: 50.0 mg/kg/injection, schedule: Q01DX009 (ip), vehicle: saline with Tween-80 95 % of control and 97 % of control | [12] 100 % of control and 103 % of control | dose: 100.0 mg/kg/injection, schedule: Q04DX002 (ip), vehicle: alcohol 102 % of control | dose: 200.0 mg/kg/injection, schedule: Q04DX002 (ip), vehicle: alcohol 104 % of control | dose: 400.0 mg/kg/injection, schedule: Q04DX002 (ip), vehicle: alcohol 94 % of control

CC1(C)c2ccccc2Nc2ccccc21
inactive: [12] 86 % of control | [13] 97 % of control | dose: 200.0 mg/kg/injection, schedule: Q01DX009 (ip), vehicle: saline with Tween-80 89 % of control | [14] 101 % of control | dose: 400.0 mg/kg/injection, schedule: Q01DX009 (ip), vehicle: saline with Tween-80 89 % of control | [15] 98 % of control

O=S(=O)(F)c1ccc(Cl)cc1
inactive: [13] 101 % of control | [14] 89 % of control

CSc1ccc(C(O)Cc2ccc([N+](=O)[O-])cc2)cc1 (stereo not drawn)
inactive: [3] 96 % of control | [4] 94 % of control | [5] 97 % of control | [6] 96 % of control | [7] 100 % of control | [8] 98 % of control

CCOC(=O)C(O)C(C#N)c1ccccc1 (stereo not drawn)
inactive: dose: 100.0 mg/kg/injection, schedule: Q01DX009 (ip), vehicle: other 94 % of control | dose: 100.0 mg/kg/injection, schedule: Q04DX003 (ip), vehicle: other 118 % of control | dose: 200.0 mg/kg/injection, schedule: Q01DX009 (ip), vehicle: other 106 % of control | dose: 200.0 mg/kg/injection, schedule: Q04DX003 (ip), vehicle: other 101 % of control | dose: 400.0 mg/kg/injection, schedule: Q01DX009 (ip), vehicle: other 95 % of control | dose: 400.0 mg/kg/injection, schedule: Q04DX003 (ip), vehicle: other 105 % of control

O=[N+]([O-])c1cccc2cncc(Br)c12
inactive: dose: 100.0 mg/kg/injection, schedule: Q01DX001 (ip), vehicle: other 95 % of control | dose: 200.0 mg/kg/injection, schedule: Q01DX001 (ip), vehicle: other 106 % of control | dose: 400.0 mg/kg/injection, schedule: Q01DX001 (ip), vehicle: other 104 % of control

O=C1/C(=N/O)CCCc2ccccc21
inactive: dose: 100.0 mg/kg/injection, schedule: Q01DX001 (ip), vehicle: carboxymethylcellulose (CMC) 103 % of control | dose: 200.0 mg/kg/injection, schedule: Q01DX001 (ip), vehicle: carboxymethylcellulose (CMC) 97 % of control | dose: 400.0 mg/kg/injection, schedule: Q01DX001 (ip), vehicle: carboxymethylcellulose (CMC) 103 % of control

FC(F)(F)/C([S-])=C(/[S-])C(F)(F)F.FC(F)(F)/C([S-])=C(/[S-])C(F)(F)F.FC(F)(F)/C([S-])=C(/[S-])C(F)(F)F.FC(F)(F)/C([S-])=C(/[S-])C(F)(F)F.[Co+3].[Co+3]
inactive: dose: 12.5 mg/kg/injection, schedule: Q01DX009 (ip), vehicle: other 113 % of control | dose: 25.0 mg/kg/injection, schedule: Q01DX009 (ip), vehicle: other 104 % of control

CCCCCCCCCCCCCCCC(=O)Nc1ccc(C)cc1C
inactive: dose: 100.0 mg/kg/injection, schedule: Q04DX002 (ip), vehicle: Klucel (hydroxypropylcellulose) (HPC) 96 % of control | dose: 200.0 mg/kg/injection, schedule: Q04DX002 (ip), vehicle: Klucel (hydroxypropylcellulose) (HPC) 93 % of control | dose: 400.0 mg/kg/injection, schedule: Q04DX002 (ip), vehicle: Klucel (hydroxypropylcellulose) (HPC) 90 % of control

CC(CN(C)C)CN1c2ccccc2Sc2ccccc21 (stereo not drawn)
inactive: dose: 3.12 mg/kg/injection, schedule: Q04DX003 (ip), vehicle: saline with Tween-80 105 % of control | dose: 3.12 mg/kg/injection, schedule: Q04DX003 (ip), vehicle: saline 96 % of control | dose: 6.12 mg/kg/injection, schedule: Q04DX003 (ip), vehicle: saline with Tween-80 101 % of control | dose: 6.25 mg/kg/injection, schedule: Q04DX003 (ip), vehicle: saline 100 % of control and 104 % of control | dose: 12.5 mg/kg/injection, schedule: Q04DX003 (ip), vehicle: saline with Tween-80 105 % of control | dose: 12.5 mg/kg/injection, schedule: Q04DX003 (ip), vehicle: saline 102 % of control and 113 % of control | dose: 25.0 mg/kg/injection, schedule: Q04DX003 (ip), vehicle: saline with Tween-80 103 % of control | dose: 25.0 mg/kg/injection, schedule: Q04DX003 (ip), vehicle: saline 102 % of control | dose: 50.0 mg/kg/injection, schedule: Q04DX003 (ip), vehicle: saline with Tween-80 120 % of control

Cc1ccc(P(=O)(O)O)cc1C
inactive: dose: 37.5 mg/kg/injection, schedule: Q01DX009 (ip), vehicle: saline 101 % of control | dose: 50.0 mg/kg/injection, schedule: Q01DX009 (ip), vehicle: Klucel (hydroxypropylcellulose) (HPC) 101 % of control | dose: 75.0 mg/kg/injection, schedule: Q01DX009 (ip), vehicle: saline 89 % of control | [3] 95 % of control | [1] 100 % of control | dose: 150.0 mg/kg/injection, schedule: Q01DX009 (ip), vehicle: saline 87 % of control | [5] 101 % of control | [2] 88 % of control

CCOC(=O)/C=C1/Nc2cc(C)c(C)cc2NC1=O
inactive: [13] 91 % of control | [14] 89 % of control | [15] 94 % of control

COc1ccc(CNc2ccccc2C(=O)O)cc1OC
inactive: [9] 91 % of control | [11] 103 % of control

COc1ccc(/C=N/NC(=O)C(O)c2ccccc2)cc1 (stereo not drawn)
inactive: [3] 92 % of control | [5] 99 % of control | [7] 86 % of control
